Results from US20260125400A1, “TYK2 DEGRADERS AND USES THEREOF” (Kymera Therapeutics, Inc., priority 2023, published 2026).

What follows are molecules tested against T1, TYK2 (Homo sapiens, UniProt P29597) (assay: TYK2 MSD degradation in OCI-LY10 cells). Conditions: OCI-LY10 cells, 4 to 24 hours incubation.
T1 construct: Degradation of TYK2 in cells was quantitatively measured using Meso Scale Discovery (MSD) technology; endogenous in cells; host or cells: OCI-LY10
T1 sequence (P29597 whole entry): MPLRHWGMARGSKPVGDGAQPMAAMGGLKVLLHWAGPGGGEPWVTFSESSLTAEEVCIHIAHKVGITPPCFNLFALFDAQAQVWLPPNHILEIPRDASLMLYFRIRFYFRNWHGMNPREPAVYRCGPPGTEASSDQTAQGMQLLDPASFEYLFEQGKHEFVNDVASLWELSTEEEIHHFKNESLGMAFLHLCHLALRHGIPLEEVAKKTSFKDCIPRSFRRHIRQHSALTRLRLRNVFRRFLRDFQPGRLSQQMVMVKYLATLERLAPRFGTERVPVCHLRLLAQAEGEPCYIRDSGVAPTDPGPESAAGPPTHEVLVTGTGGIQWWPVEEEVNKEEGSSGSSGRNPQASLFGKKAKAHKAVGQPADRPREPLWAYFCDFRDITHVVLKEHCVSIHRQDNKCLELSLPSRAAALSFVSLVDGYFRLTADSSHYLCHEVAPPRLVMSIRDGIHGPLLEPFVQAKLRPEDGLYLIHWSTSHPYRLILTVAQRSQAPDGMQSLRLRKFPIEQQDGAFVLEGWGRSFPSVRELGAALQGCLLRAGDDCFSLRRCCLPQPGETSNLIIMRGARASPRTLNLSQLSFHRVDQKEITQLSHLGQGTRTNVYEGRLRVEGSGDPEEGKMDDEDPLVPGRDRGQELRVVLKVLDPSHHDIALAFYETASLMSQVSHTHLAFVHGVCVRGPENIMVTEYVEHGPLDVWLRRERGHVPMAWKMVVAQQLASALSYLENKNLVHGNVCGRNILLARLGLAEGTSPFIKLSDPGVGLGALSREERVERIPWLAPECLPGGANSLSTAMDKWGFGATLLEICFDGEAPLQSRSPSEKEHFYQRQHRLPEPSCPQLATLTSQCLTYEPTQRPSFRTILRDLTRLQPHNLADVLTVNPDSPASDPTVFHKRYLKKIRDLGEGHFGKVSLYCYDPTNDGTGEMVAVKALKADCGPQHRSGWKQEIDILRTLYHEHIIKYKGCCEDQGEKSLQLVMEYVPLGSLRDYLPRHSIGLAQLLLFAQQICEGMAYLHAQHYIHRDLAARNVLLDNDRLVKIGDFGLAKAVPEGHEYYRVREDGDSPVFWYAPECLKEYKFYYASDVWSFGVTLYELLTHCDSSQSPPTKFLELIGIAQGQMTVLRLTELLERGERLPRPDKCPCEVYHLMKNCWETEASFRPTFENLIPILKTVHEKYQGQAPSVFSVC
Type: cell-based
How it was run: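 OCI-LY10 cells were treated with 9-dose 1:3 series (top 1 to 10 μM final) for 4 to 24 hours at 37° C. Lysate TYK2 quantified by MSD sandwich immunoassay; DC50 and Dmax from four-parameter inhibitor vs. response fit.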
`CNc1cc(N2CCc3c2ccc(F)c3-c2ccc(CN3CCC4(CCN(C(=O)c5cc(C)c(Cl)c(N6CCC(=O)NC6=O)c5)CC4)C(F)(F)C3)cn2)nn2c(C(=O)N[C@@H]3C[C@@H]3F)cnc12` [I-742] was tested, and the “TYK2 MSD OCI-LY10 Dmax %” value was “C (C (75 to 50%))”. `CNc1cc(N2CCc3c(-c4cc(CN5CCN(c6ccn7c(N8CCC(=O)NC8=O)cnc7c6)CC5)ccn4)cccc32)nn2c(C(=O)N[C@@H]3C[C@@H]3F)cnc12` [I-719] was tested, and the “TYK2 MSD OCI-LY10 Dmax %” value was “C (C (75 to 50%))”. `CNc1cc(N2CCc3c(CN4CCC(N5CC(CN6CCN(C(=O)c7ccc(Cl)c(N8CCC(=O)NC8=O)c7)CC6)C5)C(F)(F)C4)cccc32)nn2c(C(=O)N[C@@H]3C[C@@H]3F)cnc12` (stereo partly shown) [I-710] was tested, and the “TYK2 MSD OCI-LY10 Dmax %” value was “B (B (90 to >75%))”. In the case of `CNc1cc(N2CCc3c(C#CCN4CCC(N5CCC6(CCN(C(=O)c7ccc(Cl)c(N8CCC(=O)NC8=O)c7)CC6)CC5)C(F)(F)C4)cccc32)nn2c(C(=O)N[C@@H]3C[C@@H]3F)cnc12` (stereo partly shown) [I-700], the “TYK2 MSD OCI-LY10 Dmax %” value is reported as “B (B (90 to >75%))”. `CNc1cc(N2CCc3c(CN4CCC(N5CCC6(CCN(C(=O)c7cc(C)c(OC)c(N8CCC(=O)NC8=O)c7)CC6)CC5)C(F)(F)C4)cccc32)nn2c(C(=O)N[C@@H]3C[C@@H]3F)cnc12` (stereo partly shown) [I-749] was tested, and the “TYK2 MSD OCI-LY10 Dmax %” value was “B (B (90 to >75%))”.

Same assay, conditions: OCI-LY10 cells, 4 to 24 hours incubation, read-out: TYK2 MSD OCI-LY10 Rel-DC50
Molecule `CNc1cc(N2CCc3c2ccc(F)c3-c2ccc(CN3CCC4(CCN(C(=O)c5cc(C)c(Cl)c(N6CCC(=O)NC6=O)c5)CC4)C(F)(F)C3)cn2)nn2c(C(=O)N[C@@H]3C[C@@H]3F)cnc12` [I-742] has a DC50 of 10 to 100 nM. `CNc1cc(N2CCc3c(-c4cc(CN5CCN(c6ccn7c(N8CCC(=O)NC8=O)cnc7c6)CC5)ccn4)cccc32)nn2c(C(=O)N[C@@H]3C[C@@H]3F)cnc12` [I-719] gave a DC50 of less than 10 nM. Molecule `CNc1cc(N2CCc3c(CN4CCC(N5CC(CN6CCN(C(=O)c7ccc(Cl)c(N8CCC(=O)NC8=O)c7)CC6)C5)C(F)(F)C4)cccc32)nn2c(C(=O)N[C@@H]3C[C@@H]3F)cnc12` (stereo partly shown) [I-710] has a DC50 of less than 10 nM. For `CNc1cc(N2CCc3c(C#CCN4CCC(N5CCC6(CCN(C(=O)c7ccc(Cl)c(N8CCC(=O)NC8=O)c7)CC6)CC5)C(F)(F)C4)cccc32)nn2c(C(=O)N[C@@H]3C[C@@H]3F)cnc12` (stereo partly shown) [I-700], the DC50 was less than 1 nM. Work on `CNc1cc(N2CCc3c(CN4CCC(N5CCC6(CCN(C(=O)c7cc(C)c(OC)c(N8CCC(=O)NC8=O)c7)CC6)CC5)C(F)(F)C4)cccc32)nn2c(C(=O)N[C@@H]3C[C@@H]3F)cnc12` (stereo partly shown) [I-749] yielded a DC50 of less than 10 nM.

Same assay, conditions: TYK2 degradation in OCI-LY10 cells, 4 to 24 hours incubation
For `CNc1cc(N2CCc3c(-c4ccc(CN5CC6(CCN(Cc7ccc(Cl)c(N8CCC(=O)NC8=O)c7)CC6(F)F)C5)cn4)cccc32)nn2c(C(=O)N[C@@H]3C[C@@H]3F)cnc12` [I-369], the “TYK2 MSD OCI-LY10 Dmax %” value was “D (D (<50%))”. `CNc1cc(N2CCc3c(-c4ccc(CN5CCC6(CCN(Cc7ccc(Cl)c(N8CCC(=O)NC8=O)c7)CC6)C(F)(F)C5)cn4)cccc32)nn2c(C(=O)NC3CC3)cnc12` [I-363] was tested, and the “TYK2 MSD OCI-LY10 Dmax %” value was “D (D (<50%))”. `CNc1cc(N2CCc3c(CN4CCC(N5CCC(N6CCN(c7ccc8c(c7)n(C)c(=O)n8C7CCC(=O)NC7=O)CC6)CC5)C(F)(F)C4)cccc32)nn2c(C(=O)NC3CC3)cnc12` (stereo not shown) [I-62] was tested, and the “TYK2 MSD OCI-LY10 Dmax %” value was “B (B (90 to >75%))”. `CNc1cc(N2CC3(CCN(Cc4cccc5c4n(C)c(=O)n5C4CCC(=O)NC4=O)CC3)c3ccccc32)nn2c(C(=O)NC3CC3)cnc12` (stereo not shown) [I-52] was tested, and the “TYK2 MSD OCI-LY10 Dmax %” value was “D (D (<50%))”. `CNc1cc(N2CCc3c(-c4ccc(CN5CCC(N6CCN(c7ccc8c(c7F)n(C)c(=O)n8C7CCC(=O)NC7=O)CC6)C(F)(F)C5)cn4)cccc32)nn2c(C(=O)NC3CC3F)cnc12` (stereo not shown) [I-910] was tested, and the “TYK2 MSD OCI-LY10 Dmax %” value was “B (B (90 to >75%))”. `CNc1cc(N2CCc3c(N4CCN(CC5CC6(CCN(C(=O)c7ccc(Cl)c(N8CCC(=O)NC8=O)c7)CC6)C5)CC4)cccc32)nn2c(C(=O)NC3CC3)cnc12` [I-32] was tested, and the “TYK2 MSD OCI-LY10 Dmax %” value was “C (C (75 to 50%))”. For `CNc1cc(N2CCc3c(-c4ccc(CN5CCC6(CCN(C(=O)c7ccc(C(F)F)c(N8CCC(=O)NC8=O)c7)CC6)C(F)(F)C5)cn4)cccc32)nn2c(C(=O)N[C@@H]3C[C@@H]3F)cnc12` [I-980], the “TYK2 MSD OCI-LY10 Dmax %” value was “C (C (75 to 50%))”. In the case of `CNc1cc(N2CCc3c(-c4ccc(CN5CCC(N6CCN(c7ccc(C8CCC(=O)NC8=O)c(Cl)c7)CC6)C(F)(F)C5)cn4)cccc32)nn2c(C(=O)N[C@H]3C[C@H]3F)cnc12` (stereo partly shown) [I-83], the “TYK2 MSD OCI-LY10 Dmax %” value is reported as “D (D (<50%))”. `CNc1cc(N2CCc3c(-c4ccc(CN5CC6(CCN(C(=O)c7ccc(Cl)c(N8CCC(=O)NC8=O)c7)CC6(F)F)C5)cn4)cccc32)nn2c(C(=O)N[C@H]3C[C@@H](F)C3)cnc12` [I-883] was tested, and the “TYK2 MSD OCI-LY10 Dmax %” value was “A (A (>90%))”.

Same assay, conditions: TYK2 degradation in OCI-LY10 cells, 4 to 24 hours incubation, read-out: TYK2 MSD OCI-LY10 Rel-DC50
With `CNc1cc(N2CCc3c(-c4ccc(CN5CC6(CCN(Cc7ccc(Cl)c(N8CCC(=O)NC8=O)c7)CC6(F)F)C5)cn4)cccc32)nn2c(C(=O)N[C@@H]3C[C@@H]3F)cnc12` [I-369] the DC50 was greater than 100 nM. With `CNc1cc(N2CCc3c(-c4ccc(CN5CCC6(CCN(Cc7ccc(Cl)c(N8CCC(=O)NC8=O)c7)CC6)C(F)(F)C5)cn4)cccc32)nn2c(C(=O)NC3CC3)cnc12` [I-363] the DC50 was greater than 100 nM. `CNc1cc(N2CCc3c(CN4CCC(N5CCC(N6CCN(c7ccc8c(c7)n(C)c(=O)n8C7CCC(=O)NC7=O)CC6)CC5)C(F)(F)C4)cccc32)nn2c(C(=O)NC3CC3)cnc12` (stereo not shown) [I-62] was tested, and the DC50 was less than 1 nM. For `CNc1cc(N2CC3(CCN(Cc4cccc5c4n(C)c(=O)n5C4CCC(=O)NC4=O)CC3)c3ccccc32)nn2c(C(=O)NC3CC3)cnc12` (stereo not shown) [I-52], the DC50 was greater than 100 nM. In the case of `CNc1cc(N2CCc3c(-c4ccc(CN5CCC(N6CCN(c7ccc8c(c7F)n(C)c(=O)n8C7CCC(=O)NC7=O)CC6)C(F)(F)C5)cn4)cccc32)nn2c(C(=O)NC3CC3F)cnc12` (stereo not shown) [I-910], the DC50 is reported as less than 10 nM. `CNc1cc(N2CCc3c(N4CCN(CC5CC6(CCN(C(=O)c7ccc(Cl)c(N8CCC(=O)NC8=O)c7)CC6)C5)CC4)cccc32)nn2c(C(=O)NC3CC3)cnc12` [I-32] showed a DC50 of less than 10 nM. For `CNc1cc(N2CCc3c(-c4ccc(CN5CCC6(CCN(C(=O)c7ccc(C(F)F)c(N8CCC(=O)NC8=O)c7)CC6)C(F)(F)C5)cn4)cccc32)nn2c(C(=O)N[C@@H]3C[C@@H]3F)cnc12` [I-980], the DC50 was less than 10 nM. Work on `CNc1cc(N2CCc3c(-c4ccc(CN5CCC(N6CCN(c7ccc(C8CCC(=O)NC8=O)c(Cl)c7)CC6)C(F)(F)C5)cn4)cccc32)nn2c(C(=O)N[C@H]3C[C@H]3F)cnc12` (stereo partly shown) [I-83] yielded a DC50 of less than 10 nM. Work on `CNc1cc(N2CCc3c(-c4ccc(CN5CC6(CCN(C(=O)c7ccc(Cl)c(N8CCC(=O)NC8=O)c7)CC6(F)F)C5)cn4)cccc32)nn2c(C(=O)N[C@H]3C[C@@H](F)C3)cnc12` [I-883] yielded a DC50 of less than 1 nM.
